In ChEMBL document CHEMBL1152560, “Substituted 2-arylbenzothiazoles as kinase inhibitors: hit-to-lead optimization” (Bioorg Med Chem, 2009):

Tests used:
[1] = biological target: T1, MAP kinase-activated protein kinase 5 (Homo sapiens) (UniProt Q8IW41); assay: Residual activity of MAPKAPK5 at 10 uM by microplate scintillation counting
T1 sequence (whole entry): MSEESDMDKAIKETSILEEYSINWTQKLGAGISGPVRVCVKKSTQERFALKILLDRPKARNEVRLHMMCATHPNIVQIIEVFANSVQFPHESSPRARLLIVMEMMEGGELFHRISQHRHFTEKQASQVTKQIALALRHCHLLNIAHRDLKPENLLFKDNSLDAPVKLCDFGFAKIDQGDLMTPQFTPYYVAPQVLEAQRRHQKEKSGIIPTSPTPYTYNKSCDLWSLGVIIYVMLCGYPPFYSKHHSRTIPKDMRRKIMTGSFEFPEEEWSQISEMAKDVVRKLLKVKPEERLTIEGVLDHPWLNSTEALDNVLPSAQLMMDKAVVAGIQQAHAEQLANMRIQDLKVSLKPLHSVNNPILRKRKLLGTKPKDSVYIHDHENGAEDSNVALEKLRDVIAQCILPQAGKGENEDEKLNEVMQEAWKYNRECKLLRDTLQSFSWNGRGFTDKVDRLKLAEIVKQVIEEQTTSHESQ

[2] = biological target: Tyrosine-protein kinase Yes (Homo sapiens) (UniProt P07947); assay: Residual activity of YES at 1 uM by microplate scintillation counting
Sequence of Tyrosine-protein kinase Yes (Homo sapiens) (P07947 2-543 limits assumed): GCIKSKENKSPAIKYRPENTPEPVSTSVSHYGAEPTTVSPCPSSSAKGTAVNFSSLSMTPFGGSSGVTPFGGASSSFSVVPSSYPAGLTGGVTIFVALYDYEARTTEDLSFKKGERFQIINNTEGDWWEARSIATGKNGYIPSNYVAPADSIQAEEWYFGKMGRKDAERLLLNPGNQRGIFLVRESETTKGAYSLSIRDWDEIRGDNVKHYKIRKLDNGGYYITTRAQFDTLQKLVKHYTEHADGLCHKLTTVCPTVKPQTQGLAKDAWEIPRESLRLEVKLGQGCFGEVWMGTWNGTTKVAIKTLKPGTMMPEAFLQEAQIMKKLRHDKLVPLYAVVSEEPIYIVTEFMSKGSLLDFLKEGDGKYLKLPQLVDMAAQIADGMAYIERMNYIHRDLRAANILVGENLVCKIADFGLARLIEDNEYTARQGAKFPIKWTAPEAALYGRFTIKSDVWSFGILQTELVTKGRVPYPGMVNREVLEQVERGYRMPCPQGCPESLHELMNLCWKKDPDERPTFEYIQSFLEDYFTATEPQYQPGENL

[3] = biological target: T2, Eukaryotic elongation factor 2 kinase (Homo sapiens) (UniProt O00418); assay: Residual activity of EEF2K at 0.1 uM by microplate scintillation counting
T2 sequence (whole entry): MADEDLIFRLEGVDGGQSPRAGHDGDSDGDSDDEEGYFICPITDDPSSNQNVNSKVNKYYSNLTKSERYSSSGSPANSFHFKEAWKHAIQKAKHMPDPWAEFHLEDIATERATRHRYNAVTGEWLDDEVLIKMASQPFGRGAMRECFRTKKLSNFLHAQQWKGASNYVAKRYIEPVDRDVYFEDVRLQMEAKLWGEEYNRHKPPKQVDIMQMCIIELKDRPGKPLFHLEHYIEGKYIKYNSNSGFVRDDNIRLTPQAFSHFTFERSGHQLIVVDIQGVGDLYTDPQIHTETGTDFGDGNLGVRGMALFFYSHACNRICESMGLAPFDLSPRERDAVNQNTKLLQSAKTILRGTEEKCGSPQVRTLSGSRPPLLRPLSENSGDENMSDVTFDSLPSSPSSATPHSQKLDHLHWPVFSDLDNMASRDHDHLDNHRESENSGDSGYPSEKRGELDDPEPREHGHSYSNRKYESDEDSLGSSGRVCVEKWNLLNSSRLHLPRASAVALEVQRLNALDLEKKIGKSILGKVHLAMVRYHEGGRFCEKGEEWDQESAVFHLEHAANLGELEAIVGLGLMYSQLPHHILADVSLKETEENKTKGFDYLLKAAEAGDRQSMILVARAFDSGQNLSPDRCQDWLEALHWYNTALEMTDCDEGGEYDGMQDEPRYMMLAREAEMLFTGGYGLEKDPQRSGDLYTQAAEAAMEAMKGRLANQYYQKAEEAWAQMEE

[4] = biological target: Casein kinase I isoform gamma-3 (Homo sapiens) (UniProt Q9Y6M4); assay: Residual activity of CK1gamma3 at 10 uM by microplate scintillation counting
Sequence of Casein kinase I isoform gamma-3 (Homo sapiens) (Q9Y6M4 whole entry, looked up, canonical isoform): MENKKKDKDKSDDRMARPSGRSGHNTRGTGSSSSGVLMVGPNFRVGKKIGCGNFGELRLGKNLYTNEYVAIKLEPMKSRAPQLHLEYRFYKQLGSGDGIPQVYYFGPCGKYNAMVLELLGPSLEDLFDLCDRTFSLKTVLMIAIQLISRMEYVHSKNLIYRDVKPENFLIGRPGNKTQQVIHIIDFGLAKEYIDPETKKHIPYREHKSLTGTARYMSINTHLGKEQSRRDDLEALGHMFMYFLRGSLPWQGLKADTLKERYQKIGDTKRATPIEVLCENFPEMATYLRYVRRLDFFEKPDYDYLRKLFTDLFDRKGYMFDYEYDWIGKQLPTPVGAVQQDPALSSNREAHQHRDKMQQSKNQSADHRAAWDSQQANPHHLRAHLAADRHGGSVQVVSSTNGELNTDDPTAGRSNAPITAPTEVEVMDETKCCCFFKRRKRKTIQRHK

[5] = biological target: NT-3 growth factor receptor (Homo sapiens) (UniProt Q16288); assay: Residual activity of TRK-C at 0.1 uM by microplate scintillation counting
Sequence of NT-3 growth factor receptor (Homo sapiens) (Q16288 32-839 limits assumed): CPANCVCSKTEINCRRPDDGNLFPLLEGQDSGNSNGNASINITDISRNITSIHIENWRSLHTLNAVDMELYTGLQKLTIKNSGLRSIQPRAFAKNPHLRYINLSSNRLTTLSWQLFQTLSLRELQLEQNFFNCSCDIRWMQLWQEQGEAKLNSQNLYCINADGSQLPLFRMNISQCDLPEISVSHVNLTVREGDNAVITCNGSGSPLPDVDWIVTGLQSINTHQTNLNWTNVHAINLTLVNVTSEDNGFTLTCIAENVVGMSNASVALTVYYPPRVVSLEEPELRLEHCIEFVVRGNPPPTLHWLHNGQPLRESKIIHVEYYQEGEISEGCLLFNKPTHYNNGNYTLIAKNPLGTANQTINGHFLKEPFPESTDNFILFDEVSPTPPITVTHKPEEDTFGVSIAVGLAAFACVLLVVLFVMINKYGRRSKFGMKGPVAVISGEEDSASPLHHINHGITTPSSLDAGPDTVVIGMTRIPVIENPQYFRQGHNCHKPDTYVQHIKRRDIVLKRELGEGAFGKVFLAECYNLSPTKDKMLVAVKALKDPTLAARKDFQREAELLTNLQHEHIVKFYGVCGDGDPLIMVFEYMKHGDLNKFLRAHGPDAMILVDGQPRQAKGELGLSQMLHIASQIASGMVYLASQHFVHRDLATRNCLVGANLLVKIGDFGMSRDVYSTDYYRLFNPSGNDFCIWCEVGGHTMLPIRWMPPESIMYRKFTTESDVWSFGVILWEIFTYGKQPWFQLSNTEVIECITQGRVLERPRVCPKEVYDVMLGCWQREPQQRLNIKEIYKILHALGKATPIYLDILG

[6] = biological target: T3, Serine/threonine-protein kinase Sgk3 (Homo sapiens) (UniProt Q96BR1); assay: Residual activity of SGK3 at 1 uM by microplate scintillation counting
T3 sequence (whole entry): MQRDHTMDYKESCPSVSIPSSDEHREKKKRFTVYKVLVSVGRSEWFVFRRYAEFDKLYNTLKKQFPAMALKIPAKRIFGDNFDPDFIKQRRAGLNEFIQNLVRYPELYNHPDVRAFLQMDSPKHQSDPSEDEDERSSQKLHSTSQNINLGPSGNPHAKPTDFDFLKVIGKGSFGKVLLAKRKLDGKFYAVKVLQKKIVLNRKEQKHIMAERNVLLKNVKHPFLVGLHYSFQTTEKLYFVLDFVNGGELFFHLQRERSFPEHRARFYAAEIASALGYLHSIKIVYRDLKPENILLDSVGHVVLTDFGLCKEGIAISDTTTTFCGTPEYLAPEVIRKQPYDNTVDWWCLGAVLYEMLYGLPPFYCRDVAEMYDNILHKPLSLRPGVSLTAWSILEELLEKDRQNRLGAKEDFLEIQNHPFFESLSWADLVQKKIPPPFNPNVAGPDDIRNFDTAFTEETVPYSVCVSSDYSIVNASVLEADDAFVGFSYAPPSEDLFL

[7] = biological target: T4, NUAK family SNF1-like kinase 2 (Homo sapiens) (UniProt Q9H093); assay: Residual activity of SNARK at 0.1 uM by microplate scintillation counting
T4 sequence (whole entry): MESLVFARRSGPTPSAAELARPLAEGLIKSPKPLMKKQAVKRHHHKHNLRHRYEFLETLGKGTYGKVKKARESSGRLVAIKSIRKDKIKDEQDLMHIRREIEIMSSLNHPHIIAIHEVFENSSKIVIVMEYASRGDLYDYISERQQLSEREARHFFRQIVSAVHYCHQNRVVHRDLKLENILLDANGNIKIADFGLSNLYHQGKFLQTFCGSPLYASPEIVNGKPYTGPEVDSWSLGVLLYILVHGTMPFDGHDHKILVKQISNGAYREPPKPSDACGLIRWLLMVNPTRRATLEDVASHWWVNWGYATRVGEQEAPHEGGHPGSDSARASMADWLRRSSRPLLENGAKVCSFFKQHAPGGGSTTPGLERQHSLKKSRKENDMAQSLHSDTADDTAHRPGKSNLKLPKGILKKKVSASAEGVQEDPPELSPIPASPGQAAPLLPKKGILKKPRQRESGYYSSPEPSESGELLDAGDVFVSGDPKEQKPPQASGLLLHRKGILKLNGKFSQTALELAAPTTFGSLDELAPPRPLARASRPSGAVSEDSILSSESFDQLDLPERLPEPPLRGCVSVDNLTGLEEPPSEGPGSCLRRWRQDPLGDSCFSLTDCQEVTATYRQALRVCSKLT

[8] = biological target: T5, Testis-specific serine/threonine-protein kinase 2 (Homo sapiens) (UniProt Q96PF2); assay: Residual activity of TSK2 at 1 uM by microplate scintillation counting
T5 sequence (whole entry): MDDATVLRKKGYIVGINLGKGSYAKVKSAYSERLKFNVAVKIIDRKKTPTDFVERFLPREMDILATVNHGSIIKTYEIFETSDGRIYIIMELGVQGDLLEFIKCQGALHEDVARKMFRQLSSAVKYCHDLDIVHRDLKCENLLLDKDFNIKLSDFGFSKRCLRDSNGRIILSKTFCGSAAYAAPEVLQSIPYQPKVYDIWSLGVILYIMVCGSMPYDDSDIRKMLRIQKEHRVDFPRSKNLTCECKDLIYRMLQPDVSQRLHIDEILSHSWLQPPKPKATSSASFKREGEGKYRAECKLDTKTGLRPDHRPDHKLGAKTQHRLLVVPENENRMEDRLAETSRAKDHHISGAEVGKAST

Row | SMILES | residual activity [1] | residual activity [2] | residual activity [3] | residual activity [4] | residual activity [5] | residual activity [6] | residual activity [7] | residual activity [8]
1 | COc1cc2c(Oc3ccc(-c4nc5ccccc5s4)cc3F)ncnc2cc1OCCCN1CCN(C)CC1 | 134% | 49% | 88% | 105% | 110% | 94% | 88% | 98%
2 | COc1cc2c(Oc3ccc(-c4nc5ccccc5s4)cc3)ncnc2cc1OCCCN1CCCC1 | 109% | 84% | 91% | 101% | 109% | 110% | 84% | 108%
3 | COc1cc2c(Oc3ccc(-c4nc5ccccc5s4)cc3)ncnc2cc1OCCCN1CCN(C)CC1 | 143% | 68% | 92% | 107% | 97% | 91% | 96% | 92%
